The numbers were not newly measured in US12100485B2, “Machine learning and molecular simulation based methods for enhancing binding and activity prediction” (The Board of Trustees of the Leland Stanford Junior …, priority 2018, dated 2024), which cites them from elsewhere.

The test system of the first series is μOR.
Details: not given
Take `CN1CC[C@]23c4c5ccc(O)c4O[C@H]2C(=O)C=C[C@H]3[C@H]1C5` [morphinone]: the Action entry is reported as “agonist”.

For the compound `CCOC(=O)C1(c2ccccc2)CCCN(C)CC1` (stereo not drawn) [ethoheptazine], the Action result is reported as “agonist”.

Consider `CN1CC[C@]23c4c5ccc(O)c4O[C@@]2(C)C(=O)CC[C@H]3[C@H]1C5` [metopon], for which the Action entry was “agonist”.

`CCOC(=O)C1(c2ccccc2)CCN(CCOCc2ccccc2)CC1` [benzethidine]: the Action result is listed as “agonist”.

Consider `CC[C@@H](O)C(C[C@@H](C)N(C)C)(c1ccccc1)c1ccccc1` [alphamethadol], for which the Action result was “agonist”.

Regarding `CCOC(=O)C1(c2ccccc2)CCN(CCC(C#N)(c2ccccc2)c2ccccc2)CC1` [diphenoxylate], the Action result was “agonist”.

On to `CCOC(=O)C1(c2ccccc2)CCN(CCc2ccccc2)CC1` [pheneridine], for which the Action entry was “agonist”.

In the case of `CCOC(=O)C1(c2ccccc2)CCN(CCOCC2CCCO2)CC1` (stereo not drawn) [furethidine], the Action entry was “agonist”.

Turning to `CCOC(C(=O)OCCN(C)C)(c1ccccc1)c1ccccc1` [dimenoxadol], the Action result is on record as “agonist”.

As to `CC[C@H](OC(C)=O)C(C[C@@H](C)N(C)C)(c1ccccc1)c1ccccc1` [betacetylmethadol], the Action entry is “agonist”.

On to `CCOC(=O)C1(c2ccccc2)CCN(CCCNc2ccccc2)CC1` [piminodine], for which the Action entry is recorded as “agonist”.

In the case of `CN1CC[C@]23c4c5ccc(O)c4O[C@H]2[C@@H](O)C=C[C@H]3[C@H]1C5` [morphine], the Action entry was “agonist”.

Consider `CCC(OC(C)=O)C(CC(C)NC)(c1ccccc1)c1ccccc1` (stereo not drawn) [noracymethadol], for which the Action result is listed as “agonist”.

`CO[C@H]1C=C[C@H]2[C@H]3Cc4ccc(O)c5c4[C@@]2(CCN3C)[C@H]1O5` [heterocodeine]: the Action entry was “agonist”.

Consider `CC(C)C[C@@H](NC(=O)[C@H](Cc1ccccc1)NC(=O)CNC(=O)[C@@H](C)NC(=O)[C@@H](N)Cc1ccc(O)cc1)C(=O)O` [dadle], for which the Action entry is reported as “agonist”.

`COC(=O)/C=C/C(=O)N[C@@H]1CC[C@@]2(O)[C@H]3Cc4ccc(O)c5c4[C@@]2(CCN3CC2CC2)[C@H]1O5` [beta-funaltrexamine]: the Action result is “antagonist”.

Regarding `CC[C@H](OC(C)=O)C(C[C@H](C)N(C)C)(c1ccccc1)c1ccccc1` [levacetylmethadol], the Action result is reported as “agonist”.

As to `CNC1(c2ccccc2Cl)CCCCC1=O` (stereo not drawn) [ketamine], the Action entry was “agonist”.

Consider `CCC(=O)C(C[C@@H](C)N(C)C)(c1ccccc1)c1ccccc1` [levomethadone], for which the Action result is on record as “agonist”.

As for `CC(C)OC(=O)C1(c2ccccc2)CCN(C)CC1` [properidine], the Action entry is “agonist”.

In the case of `COc1ccsc1CNCC[C@@]1(c2ccccn2)CCOC2(CCCC2)C1` [oliceridine], the Action entry is reported as “agonist”.

For `CN(C)[C@H](Cc1ccccc1)c1ccccc1` [lefetamine], the Action result was “agonist”.

Take `CN1CC[C@]2(C)c3cc(O)ccc3C[C@H]1C2(C)CCC(=O)CCC1CCCC1` (stereo partly drawn) [quadazocine]: the Action entry is “Antagonists”.

For `CCOC(=O)C1(c2ccccc2)CCN(CCOCCO)CC1` [etoxeridine], the Action result is listed as “agonist”.

For the compound `CCC(=O)C(c1ccccc1)(c1ccccc1)C(C)CN(C)C` (stereo not drawn) [isomethadone], the Action result is “agonist”.

With `CN1CC[C@]23c4c5ccc(O)c4O[C@H]2CCC[C@H]3[C@H]1C5` [desomorphine], the Action entry was “agonist”.

As for `CCOC(=O)C(CCN1CCOCC1)(c1ccccc1)c1ccccc1` [dioxaphetyl_butyrate], the Action entry is “agonist”.

endomorphin-2: the Action result is given as “agonist”.

For the compound `CCOC(=O)C1(c2ccccc2)CCN(C)CC1` [pethidine], the Action result is listed as “agonist”.

Take `CN1CC[C@]23c4c5ccc(O)c4O[C@H]2/C(=N\N)CC[C@@]3(O)[C@H]1C5` [oxymorphazone]: the Action entry is “agonist”.

`CCC(=O)OC1(c2ccccc2)CCN(C)C1C` (stereo not drawn) [prodilidine]: the Action result is listed as “agonist”.

For the compound `CCC(=O)OC1(c2ccccc2)CC(C)N(C)CC1C` (stereo not drawn) [trimeperidine], the Action result was “agonist”.

As for `CC1=CC[C@H]2[C@H]3Cc4ccc(O)c5c4[C@@]2(CCN3C)[C@H]1O5` [methyldesorphine], the Action entry is recorded as “agonist”.

For `CC1C2Cc3ccc(O)cc3C1(C)CCN2CCc1ccccc1` (stereo not drawn) [phenazocine], the Action result is given as “agonist”.

With endomorphin, the Action entry is “agonist”.

Turning to `CN1CC[C@]23c4c5ccc(O)c4O[C@H]2[C@@H](O[C@@H]2O[C@H](C(=O)O)[C@@H](O)[C@H](O)[C@H]2O)C=C[C@H]3[C@H]1C5` [morphine-6-glucuronide], the Action result was “agonist”.

Consider `CN1CC[C@]23c4c5ccc(O)c4O[C@H]2[C@@H](O)CC[C@H]3[C@H]1C5` [dihydromorphine], for which the Action result is reported as “agonist”.

For the compound `CCC(=O)C(CC(C)N(C)C)(c1ccccc1)c1ccccc1` (stereo not drawn) [methadone], the Action result is on record as “agonist”.

On to `CCOC(=O)C1(c2ccccc2)CCN(CCc2ccc(N)cc2)CC1` [anileridine], for which the Action result is listed as “agonist”.

`CN1CC[C@]23c4c5ccc(O)c4O[C@H]2C(=O)CC[C@@]3(O)[C@H]1C5` [oxymorphone]: the Action entry is reported as “agonist”.

As for `CCOC(=O)C1(c2ccccc2)CCN(CCC(O)c2ccccc2)CC1` (stereo not drawn) [phenoperidine], the Action entry is given as “agonist”.

Consider `N#CC(CCN1CCC(C(N)=O)(N2CCCCC2)CC1)(c1ccccc1)c1ccccc1` [piritramide], for which the Action entry was “agonist”.

As for `CCOC(=O)C1(c2ccccc2)CCN(CC(O)c2ccccc2)CC1` (stereo not drawn) [oxpheneridine], the Action entry was “agonist”.

On to `CO[C@@]12CCC(=O)[C@]3(C)Oc4c(O)ccc5c4[C@@]31CCN(C)[C@@H]2C5` [14-methoxymetopon], for which the Action result is “agonist”.

Consider `C[C@@H](NC(=O)[C@@H](N)Cc1ccc(O)cc1)C(=O)NCC(=O)N(C)[C@@H](Cc1ccccc1)C(=O)NCCO` [damgo], for which the Action result was “agonist”.

With `C[C@H](CN1CCOCC1)C(C(=O)N1CCCC1)(c1ccccc1)c1ccccc1` [dextromoramide], the Action result is listed as “agonist”.

Consider `CCC(=O)C(CC(C)N1CCOCC1)(c1ccccc1)c1ccccc1` (stereo not drawn) [phenadoxone], for which the Action entry is given as “agonist”.

For the compound `CCC(O)C(CC(C)N(C)C)(c1ccccc1)c1ccccc1` (stereo not drawn) [dimepheptanol], the Action result is listed as “agonist”.

Consider `C[C@H]1CN(CC[C@H](O)C2CCCCC2)CC[C@@]1(C)c1cccc(O)c1` [ly-255582], for which the Action result was “antagonist”.

Turning to `N#CC(CCN1CCC(C(=O)O)(c2ccccc2)CC1)(c1ccccc1)c1ccccc1` [difenoxin], the Action entry is “agonist”.

Consider `NC(=O)c1ccc2c(c1O)[C@]13CCN(CC4CC4)[C@H](C2)[C@]1(O)CCC(=O)C3` [samidorphan], for which the Action entry was “Antagonists”.

As for `CCC(=O)C1(c2cccc(O)c2)CCN(C)CC1` [ketobemidone], the Action result is given as “agonist”.

On to `CCOC(=O)C1(c2ccccc2)CCN(CCN2CCOCC2)CC1` [morpheridine], for which the Action entry is given as “agonist”.

As to `COc1cccc2c1[C@]13CCN(CC4CC4)[C@H](C2)[C@]1(OC)CCC(=O)C3` [cyprodime], the Action result was “antagonist”.

With `CCC(=O)OC1(c2ccccc2)CCCN(C)CC1C` (stereo not drawn) [proheptazine], the Action result is given as “agonist”.

On to `CCC(=O)O[C@](Cc1ccccc1)(c1ccccc1)[C@H](C)CN(C)C` [dextropropoxyphene], for which the Action entry is “agonist”.

For the compound `Oc1cccc([C@@]23CCCC[C@H]2CN(CC2CC2)CC3)c1` [ciprefadol], the Action result is recorded as “agonist”.

Take `O=C(N[C@@H]1CC[C@@]2(O)[C@H]3Cc4ccc(O)c5c4[C@@]2(CCN3CC2CC2)[C@H]1O5)c1cccc(I)c1` [ibntxa]: the Action entry was “agonist”.

For the compound `CN1CC[C@]2(C)C[C@@H](Cc3ccc(O)cc32)C1` [eptazocine], the Action entry is “antagonist”.

For `CCOC(=O)C1(c2cccc(O)c2)CCN(C)CC1` [hydroxypethidine], the Action result was “agonist”.

hemorphin-4: the Action entry was “agonist”.

With `CC[C@@H]1CN2CC[C@]3(Nc4cccc(OC)c4C3=O)[C@@H]2C[C@@H]1/C(=C\OC)C(=O)OC` [mitragynine_pseudoindoxyl], the Action entry is “agonist”.

For `O=C(CN1CC[C@]23CCCC[C@H]2[C@H]1Cc1ccc(O)cc13)c1ccccc1` [levophenacylmorphan], the Action entry is recorded as “agonist”.

For `NC(=O)c1cccc([C@H]2C[C@H]3CC[C@@H](C2)N3CCN(CC2CCCCC2)C(=O)[C@@H](O)CO)c1` [axelopran], the Action result was “antagonist”.

On to `CC[C@@H](OC(C)=O)C(C[C@@H](C)N(C)C)(c1ccccc1)c1ccccc1` [alphacetylmethadol], for which the Action entry is “agonist”.

In the case of `CO[C@@]12CCC(=O)[C@@H]3Oc4c(O)ccc5c4[C@@]31CCN(C)[C@@H]2C5` [14-methoxydihydromorphinone], the Action entry is “agonist”.

For the compound `CN1CC[C@]23CCCC[C@H]2[C@H]1Cc1ccc(O)cc13` [levorphanol], the Action result was “agonist”.

As for `CCOC(=O)C1(c2ccccc2)CCC=CC1N(C)C` (stereo not drawn) [tilidine], the Action result is “agonist”.

As for `CC(=O)OC1(c2ccccc2)CCN(CCc2ccccc2)CC1` [pepap], the Action entry is listed as “agonist”.

As to `Oc1ccc2c3c1O[C@H]1[C@@H](O)C=C[C@H]4[C@@H](C2)N(CCc2ccccc2)CC[C@@]341` [n-phenethylnormorphine], the Action result is recorded as “agonist”.

Take `Oc1ccc2c3c1O[C@H]1[C@H](F)CC[C@@]4(O)[C@@H](C2)N(CC2CC2)CC[C@]314` [cyclofoxy]: the Action entry is on record as “antagonist”.

Staying with this series, now noted: known pharmacology, training dataset.
For `C[C@H]1CN(C[C@H](Cc2ccccc2)C(=O)NCC(=O)O)CC[C@@]1(C)c1cccc(O)c1` [alvimopan], the Action result is “antagonist”.

For the compound `C=CCN1CC[C@]23c4c5ccc(O)c4O[C@H]2C(=O)CC[C@@]3(O)[C@H]1C5` [naloxone], the Action result was “Antagonists”.

`CN(C)CC(C)(C)C(=O)c1ccccc1` [dimethylaminopivalophenone]: the Action entry was “agonist”.

Take `O=C1CC[C@@]2(O)[C@H]3Cc4ccc(O)c5c4[C@@]2(CCN3CC2CC2)[C@H]1O5` [naltrexone]: the Action result is on record as “Antagonists”.
